According to patent US20240041028A1, “DELIVERY SYSTEM FOR PLANT PROTECTION” (Omya International AG, priority 2021, published 2024):

Tested on: Botrytis cinerea strain SAS 56
Assay: Efficacy of pyrimethanil tablets against Botrytis on tomato fruits
Assay type: in vivo
Settings: 6 days after inoculation (6 dpi); active applied one day prior to inoculation, 80 μl per hole
From the text: • Tablets loaded with pyrimethanil (sample V3.3, 2.1 wt.-%, prepared according to Example 4) • Hydromagnesite tablets unloaded • Fungicide Espiro SC, commercially available from Omya Agro • Pure pyrimethanil powder, commercially available from Pluorochem Ltd • Five plastic trays with lids • Screwdriver • Eppendorf Pipette […] • Tomato fruits (calibration 47-57 mm) • Inoculum: Spore suspension of Botrytis cinerea strain SAS 56 (3×10^5 spores/ml), commercially available from DSMZ collection.
• Treatment 1: Untreated check. • Treatment 2: Tablets loaded with pyrimethanil (sample V3.3, 2.1 wt.-%, prepared according to Example 4) (0.03 gr active/tablet). • Treatment 3: Unloaded hydromagnesite tablet. • Treatment 4: Fungicide Espiro (appl. rate 0.125% (v/v based on the total amount of prepared treatment solution (solution amount: 50 ml, see below), resulting in pyrimethanil active 400 gr/1). • Treatment 5: Pure pyrimethanil active diluted in ethanol of 99% purity.
• Treatment 1: Only inoculum applied • Treatment 2: In 50 ml of water 1 tablet was dissolved. […]
Three days after the inoculation the first symptoms in the untreated check were detected. […]

**Q.** For Cc1cc(C)nc(Nc2ccccc2)n1 [Pyrimethanil], which “Botrytis spore germination / mycelium growth on tomato fruits” value is on record?
**A.** Its value is “no mycelium was produced”.
